# Key:
# [1] = tested on: pigweed (AMARE); assay: Postemergence greenhouse trial, % visual injury on pigweed; type: in vivo, Amaranthus retroflexus; conditions: for % visual injury, observed (Ob): AMARE; for pest or weed control at 35 g/ha: Amaranthus retroflexus, post-emergence, alone, read-out: % visual injury, Ob
# Experimental: (§1) Seeds of the desired test plant species were planted in Sun Gro MetroMix® 306 planting mixture, which typically has a pH of 6.0 to 6.8 and an organic matter content of about 30 percent, in plastic pots with a surface area of 103.2 square centimeters (cm^2). When required to ensure good germination and healthy plants, a fungicide treatment and/or other chemical or physical treatment was applied. The plants were grown for 7-36 days (d) in a greenhouse with an approximate 14-hour (h) photoperiod which was maintained at about 23° C. during the day and 22° C. during the night. Nutrients and water were added on a regular basis and supplemental lighting was provided with overhead metal halide 1000-Watt lamps as necessary. The plants were employed for testing when they reached the second or third true leaf stage.
# (§2) Weighed amounts of technical material were dissolved in a volume of 97:3 volume per volume (v/v) acetone/dimethyl sulfoxide (DMSO) to stock solutions. […] The concentrated stock solutions were diluted with an aqueous mixture of 1.5% v/v of Agri-dex crop oil concentrate to provide the appropriate application rates. Compound requirements are based upon a 12 milliliter (mL) application volume at a rate of 187 liters per hectare (L/ha). Stocks solutions of the safeners were prepared following the same procedure. Spray solutions of the safeners and experimental compound mixtures were prepared by adding the stock solutions to the appropriate amount of dilution solution to form a 12 mL spray solution in two-way combinations. Formulated compounds were applied to the plant material with an overhead Mandel track sprayer equipped with 8002E nozzles calibrated to deliver 187 L/ha over an application area of 0.503 square meters (m^2) at a spray height of 18 inches (43 centimeters (cm)) above average plant canopy. Control plants were sprayed in the same manner with the solvent blank. All herbicide application (component a) rates are in g ae/ha and all safener (component b) rates are in g ai/ha.
# (§3) The treated plants and control plants were placed in a greenhouse as described above and watered by sub-irrigation to prevent wash-off of the test compounds. After 20-22 d, the condition of the test plants as compared with that of the control plants was determined visually and scored on a scale of 0 to 100 percent where 0 corresponds to no injury and 100 corresponds to complete kill. The condition of the test plants was compared with that of the control plants as determined visually and scored on a scale of 0 to 100 percent, where 0 corresponds to no injury and 100 corresponds to complete kill. Colby's equation was used to determine the herbicidal effects expected from the mixtures.
# (§4) The safener cloquintocet-mexyl was combined with compound 1, compound 2, compound 4, compound 5, and compound 6, and applied to corn/maize (ZEAMX) and spring wheat (TRZAS) and the phytotoxicity of the herbicidal compositions was measured. In addition, the efficacy of the herbicidal composition on velvetleaf (ABUTH, Abutilon theophrasti), pigweed (AMARE, Amaranthus retroflexus), winter rape (BRSNW, Brassica napus), lambsquarters (CHEAL, Chenopodium album), thistle (CIRAR, Cirsium arvense), nutsedge (CYPES, Cyperus esculentus), poinsettia (EPHHL, Euphorbia heterophylla), wild buckwheat (POLCO, Polygonum convolvulus), giant foxtail (SETFA, Setaria faberi), and chickweed (STEME, Stellaria media) was evaluated. […]
# (§5) The safener cloquintocet-acid and a number of agriculturally acceptable esters and salts (-mexyl, -dimethylammonium salt and -triethylammonium salt) were combined in varying ratios with compound 1 and applied to spring wheat (TRZAS), winter wheat (TRZAW), and spring barley (HORVS), and the phytotoxicity of the herbicidal compositions was measured. […]
# [2] = tested on: common sunflower (HELAN); assay: Postemergence greenhouse trial, % visual injury on common sunflower; type: in vivo, Helianthus annuus
# Experimental: as §1, §2, §3
# (§6) The safener cloquintocet-acid and a number of agriculturally acceptable esters and salts (-mexyl, -dimethylammonium salt and -triethylammonium salt) were combined in varying ratios with compound 1 and applied to spring wheat (TRZAS), winter wheat (TRZAW), and spring barley (HORVS), and the phytotoxicity of the herbicidal compositions was measured. In addition, the efficacy of the herbicidal composition on pigweed (AMARE, Amaranthus retroflexus), nutsedge (CYPES, Cyperus esculentus), common sunflower (HELAN, Helianthus annuus), and common sorghum (SORVU, Sorghum vulgare).
# [3] = tested on: common sorghum (SORVU); assay: Postemergence greenhouse trial, % visual injury on common sorghum; type: in vivo, Sorghum vulgare; conditions: for % visual injury, observed (Ob): SORVU
# Experimental: as §1, §2
# as §3, with “mixtures. […]” for “mixtures.”
# as §6
# [4] = tested on: nutsedge (CYPES); assay: Postemergence greenhouse trial, % visual injury on nutsedge; type: in vivo, Cyperus esculentus; conditions: for % visual injury, observed (Ob): CYPES; for % visual injury, Ob: alone, 35 g/ha
# Experimental: as §1, §2, §3, §4, §5
# [5] = tested on: corn/maize (ZEAMX); assay: Postemergence greenhouse trial, % visual injury on corn/maize; type: in vivo, Zea mays; conditions: for % visual injury, observed (Ob): ZEAMX; for % visual injury, Ob: alone, 35 g/ha
# Experimental: as §1, §2, §3, §4
# [6] = tested on: winter wheat (TRZAW); assay: Postemergence greenhouse trial, % visual injury on winter wheat; type: in vivo, Triticum aestivum; conditions: TRZAW
# Experimental: as §1, §2, §3
# (§7) The safener cloquintocet-mexyl was combined with compound 1, compound 2, compound 3, compound 7, compound 8, compound 9, compound 10, compound 11, compound 12, compound 13, compound 14, compound 15, compound 16, compound 17, compound 18, compound 19, and compound 20, and applied to spring wheat (TRZAS), winter wheat (TRZAW), and spring barley (HORVS) and the phytotoxicity of the herbicidal compositions was measured. […]
# [7] = tested on: velvetleaf (ABUTH); assay: Postemergence greenhouse trial, % visual injury on velvetleaf; type: in vivo, Abutilon theophrasti; conditions: alone, 35 g/ha
# Experimental: as §1, §2, §3
# (§8) The safener cloquintocet-mexyl was combined with compound 1, compound 2, compound 4, compound 5, and compound 6, and applied to corn/maize (ZEAMX) and spring wheat (TRZAS) and the phytotoxicity of the herbicidal compositions was measured. In addition, the efficacy of the herbicidal composition on velvetleaf (ABUTH, Abutilon theophrasti), pigweed (AMARE, Amaranthus retroflexus), winter rape (BRSNW, Brassica napus), lambsquarters (CHEAL, Chenopodium album), thistle (CIRAR, Cirsium arvense), nutsedge (CYPES, Cyperus esculentus), poinsettia (EPHHL, Euphorbia heterophylla), wild buckwheat (POLCO, Polygonum convolvulus), giant foxtail (SETFA, Setaria faberi), and chickweed (STEME, Stellaria media) was evaluated.
# as §7
# [8] = tested on: wild pansy (VIOTR); assay: Postemergence greenhouse trial, % visual injury on wild pansy; type: in vivo, Viola tricolor; conditions: alone, 35 g/ha
# Experimental: as §1, §2
# as §3, with “mixtures. […]” for “mixtures.”
# [9] = tested on: spring wheat (TRZAS); assay: Postemergence greenhouse trial, % visual injury on spring wheat; type: in vivo, Triticum aestivum; conditions: alone, 35 g/ha
# Experimental: as §1, §2, §3, §8, §7
# [10] = tested on: giant foxtail (SETFA); assay: Postemergence greenhouse trial, % visual injury on giant foxtail; type: in vivo, Setaria faberi; conditions: alone, 35 g/ha
# Experimental: as §1
# (§9) Weighed amounts of technical material were dissolved in a volume of 97:3 volume per volume (v/v) acetone/dimethyl sulfoxide (DMSO) to stock solutions. […] The concentrated stock solutions were diluted with an aqueous mixture of 1.5% v/v of Agri-dex crop oil concentrate to provide the appropriate application rates. Compound requirements are based upon a 12 milliliter (mL) application volume at a rate of 187 liters per hectare (L/ha). […]
# as §3, with “Colby's equation was used to determine the herbicidal effects expected from the mixtures.” left out
# The safener cloquintocet-mexyl was combined with compound 1, compound 2, compound 4, compound 5, and compound 6, and applied to corn/maize (ZEAMX) and spring wheat (TRZAS) and the phytotoxicity of the herbicidal compositions was measured. […]
# [11] = tested on: chickweed (STEME); assay: Postemergence greenhouse trial, % visual injury on chickweed; type: in vivo, Stellaria media; conditions: alone, 35 g/ha
# Experimental: as §1, §2, §3, §4
# [12] = tested on: thistle (CIRAR); assay: Postemergence greenhouse trial, % visual injury on thistle; type: in vivo, Cirsium arvense; conditions: Cirsium arvense, post-emergence; alone, 35 g/ha; read-out: % visual injury, Ob
# Experimental: as §1, §2, §3, §4
# [13] = tested on: lambsquarters (CHEAL); assay: Postemergence greenhouse trial, % visual injury on lambsquarters; type: in vivo, Chenopodium album; conditions: Chenopodium album, post-emergence; alone, 35 g/ha; read-out: % visual injury, Ob
# Experimental: as §1, §2, §3, §8, §7
# [14] = tested on: wild buckwheat (POLCO); assay: Postemergence greenhouse trial, % visual injury on wild buckwheat; type: in vivo, Polygonum convolvulus; conditions: alone, 35 g/ha
# Experimental: as §1, §2, §3, §8, §7
# [15] = tested on: winter rape (BRSNW); assay: Postemergence greenhouse trial, % visual injury on winter rape; type: in vivo, Brassica napus; conditions: Brassica napus, post-emergence; alone, 35 g/ha; read-out: % visual injury, Ob
# Experimental: as §1, §2, §3, §4
# [16] = tested on: poinsettia (EPHHL); assay: Postemergence greenhouse trial, % visual injury on poinsettia; type: in vivo, Euphorbia heterophylla; conditions: alone, 35 g/ha
# Experimental: as §1
# as §9, with “(L/ha). Stocks solutions of the safeners were prepared following the same procedure.” for “(L/ha).”
# as §3, with “Colby's equation was used to determine the herbicidal effects expected from the mixtures.” left out
# as §4
Compound,"% visual injury, observed (Ob) ([1]; safener alone 2.5 g/ha) [%]","% visual injury, observed (Ob) ([1]; safener alone 5 g/ha) [%]","% visual injury, observed (Ob) ([1]; safener alone 10 g/ha) [%]","% visual injury, observed (Ob) ([1]; safener alone 20 g/ha) [%]","% visual injury, observed (Ob) ([2]; safener alone 2.5 g/ha) [%]","% visual injury, observed (Ob) ([2]; safener alone 5 g/ha) [%]","% visual injury, observed (Ob) ([2]; safener alone 10 g/ha) [%]","% visual injury, observed (Ob) ([2]; safener alone 20 g/ha) [%]","% visual injury, observed (Ob) ([3]; safener alone 2.5 g/ha) [%]","% visual injury, observed (Ob) ([3]; safener alone 5 g/ha) [%]","% visual injury, observed (Ob) ([3]; safener alone 10 g/ha) [%]","% visual injury, observed (Ob) ([3]; safener alone 20 g/ha) [%]","% visual injury, observed (Ob) ([4]; safener alone 2.5 g/ha) [%]","% visual injury, observed (Ob) ([4]; safener alone 5 g/ha) [%]","% visual injury, observed (Ob) ([4]; safener alone 10 g/ha) [%]","% visual injury, observed (Ob) ([4]; safener alone 20 g/ha) [%]","% visual injury, observed (Ob) ([5]; safener alone 2.5 g/ha) [%]","% visual injury, observed (Ob) ([5]; safener alone 5 g/ha) [%]","% visual injury, observed (Ob) ([5]; safener alone 10 g/ha) [%]","% visual injury, observed (Ob) ([5]; safener alone 20 g/ha) [%]",also measured
CNC.O=C(O)COc1ccc(Cl)c2cccnc12 [CQC-DMA],0,0,0,0,0,0,0,0,0,0,0,0,0,0,0,0,0,0,0,0,"% visual injury, observed (Ob) ([6]; safener alone 2.5 g/ha): 0%; % visual injury, observed (Ob) ([6]; safener alone 5 g/ha): 0%; % visual injury, observed (Ob) ([6]; safener alone 10 g/ha): 0%; % visual injury, observed (Ob) ([6]; safener alone 20 g/ha): 0%"
CCN(CC)CC.O=C(O)COc1ccc(Cl)c2cccnc12 [CQC-TEA],0,0,0,0,0,0,0,0,0,0,0,0,0,0,0,0,0,0,0,0,"% visual injury, observed (Ob) ([6]; safener alone 2.5 g/ha): 0%; % visual injury, observed (Ob) ([6]; safener alone 5 g/ha): 0%; % visual injury, observed (Ob) ([6]; safener alone 10 g/ha): 0%; % visual injury, observed (Ob) ([6]; safener alone 20 g/ha): 0%"
O=C(O)COc1ccc(Cl)c2cccnc12 [CQC-acid],0,0,0,0,0,0,0,0,0,0,0,0,0,0,0,0,0,0,0,0,"% visual injury, observed (Ob) ([6]; safener alone 2.5 g/ha): 0%; % visual injury, observed (Ob) ([6]; safener alone 5 g/ha): 0%; % visual injury, observed (Ob) ([6]; safener alone 10 g/ha): 0%; % visual injury, observed (Ob) ([6]; safener alone 20 g/ha): 0%"
COC(=O)c1nc(-c2ccc3ccn(C(C)=O)c3c2F)c(F)c(N)c1Cl [compound 3],,,,,,,,,,,,,,,,,,,,,"% visual injury, Ob [7]: 50%; % visual injury, Ob [8]: 10%; pest or weed control at 35 g/ha [1]: 95%; % visual injury, Ob [9]: 30%; % visual injury, Ob [10]: 60%; % visual injury, Ob ([3]; alone, 35 g/ha): 10%; % visual injury, Ob [11]: 70%; % visual injury, Ob [4]: 10%; pest or weed control at 35 g/ha [12]: 50%; pest or weed control at 35 g/ha [13]: 85%; % visual injury, Ob [14]: 97%; % visual injury, Ob [5]: 0%; plant injury at 35 g/ha [15]: 30%"
COC(=O)c1nc(-c2ccc3ccn(C(=O)C(C)C)c3c2F)c(F)c(N)c1Cl [compound 4],,,,,,,,,,,,,,,,,,,,,"% visual injury, Ob [7]: 80%; pest or weed control at 35 g/ha [1]: 100%; % visual injury, Ob [9]: 40%; % visual injury, Ob [11]: 93%; pest or weed control at 35 g/ha [12]: 75%; pest or weed control at 35 g/ha [13]: 97%; % visual injury, Ob [14]: 100%; % visual injury, Ob [5]: 35%; plant injury at 35 g/ha [15]: 97%"
COCC(=O)n1ccc2ccc(-c3nc(C(=O)OC)c(Cl)c(N)c3F)c(F)c21 [compound 6],,,,,,,,,,,,,,,,,,,,,"% visual injury, Ob [7]: 80%; % visual injury, Ob [16]: 100%; pest or weed control at 35 g/ha [1]: 100%; % visual injury, Ob [9]: 35%; % visual injury, Ob [4]: 0%; pest or weed control at 35 g/ha [12]: 75%; pest or weed control at 35 g/ha [13]: 100%; % visual injury, Ob [14]: 97%; % visual injury, Ob [5]: 25%; plant injury at 35 g/ha [15]: 75%"

# Reference: patent US9763445B2, “Safened herbicidal compositions comprising a pyridine carboxylic acid herbicide” (Dow AgroSciences, LLC, priority 2014, dated 2017)
